Columns and labels:
[1] = test system: patients with AML; test: Clinical study: antileukemic activity of Compound A in combination with azacitidine in patients with AML; assay type: in vivo, human; settings: for CR / CR+CRh: 80 mg x 10 day cohort (n=17); for CR/CRh: in combination with azacitidine 75 mg/m2 x 7 days, data cutoff 5 Sep. 2022
Experimental: The clinical study was conducted to evaluate the combination of Compound A and azacitidine in patients with myeloid malignancies, including acute myeloid leukemia (AML) (either treatment-naïve [TN] unfit for intensive induction chemotherapy or relapsed/refractory [R/R]), myelodysplastic syndrome (MDS), or MDS/myeloproliferative neoplasm (MPN). Patients with AML who were treatment-naive unfit for intensive chemotherapy or who are relapsed/refractory were enrolled into the AML cohorts; and patients with myelodysplastic syndrome (MDS) or MDS/myeloproliferative neoplasm (MPN) who were treatment-naïve with high-risk disease or who were relapsed/refractory were enrolled into the MDS cohorts. The AML cohorts enrolls patients with treatment-naive (TN) AML who are unfit for intensive chemotherapy and relapsed/refractory (R/R) AML. The treatment cycles are of 28 days for all AML cohorts, unless recommended otherwise by the Safety Monitoring Committee (SMC). Part 1 AML (Dose Regimen Finding; N≈18 to 36, i.e., a minimum of 6 and a maximum of 12/cohort) studied the safety and tolerability of different dose regimens of Compound A in combination with a fixed dose of azacitidine at 75 mg/m^2 for 7 days. After 3 patients have completed the dose-limiting toxicities (DLT) window, the SMC reviewed all available data and considered the probability of DLT rate to be >20% and recommended whether or not to enroll additional patients (ie, up to 12). If no additional patients were required, the SMC would recommend whether or not to open a subsequent dose regimen in Part 1 and whether to open the dose regimen for Part 2 expansion. […] The window to assess dose-limiting toxicity (DLT) is up to Day 28 for nonhematologic toxicities and Day 42 or initiation of Cycle 2 for hematologic toxicities. The AML Part 1 dose regimen finding cohorts are as follows: • A) Compound A 40 mg daily×10 days with azacitidine (Ramp-up dosing of Compound A: 5 mg, 10 mg, 20 mg, 40 mg) • B) Compound A 80 mg daily×10 days with azacitidine (Ramp-up dosing of Compound A: 10 mg, 20 mg, 40 mg, 80 mg) • C) Compound A 160 mg daily×10 days with azacitidine (Ramp-up dosing of Compound A: 20 mg, 40 mg, 80 mg, 160 mg) • D) Compound A 160 mg daily×28 days with azacitidine (Ramp-up dosing of Compound A: 20 mg, 40 mg, 80 mg, 160 mg) • E) Compound A 320 mg daily×21 days with azacitidine (Ramp-up dosing of Compound A: 40 mg, 80 mg, 160 mg, and 320 mg) • F) Compound A 320 mg daily×28 days with azacitidine (Ramp-up dosing of Compound A: 40 mg, 80 mg, 160 mg, and 320 mg) In all Part 1 AML cohorts and the Part 2 cohort receiving the 28-day dose regimen, the initial dose of azacitidine is given 1 day prior to administration of Compound A (designated as Day 0) to compare baseline PK samples of azacitidine monotherapy with azacitidine in combination with Compound A, which starts on Day 1. In the subsequent cycles and all remaining cohorts, azacitidine administration start on Day 1 concurrently with Compound A. Dosing schema in Part I AML is shown in FIG. 1. Part 2 AML (Safety Expansion; N≈60) treated up to the cohorts each consisting of approximately 10 patients with dose regimens as defined in Part 1 and recommended by the SMC to proceed to Part 2. Part 2 of the study determined safety and antileukemic activity in a larger number of patients with a longer follow-up at dose regimens that were declared tolerable with early signs of activity in Part 1. At a given time, more than one dose regimen may be approved for expansion in Part 2; however, only a single Part 2 AML cohort was to be offered to prospective participants. Patients were preferentially enrolled in any open Part 1 cohort, if applicable. Each Part 2 cohort would continue to enroll up to 10 patients; this would include any additional patients enrolled in Part 1 but not needed for the initial SMC safety review of that cohort. […]

[2] = test system: patients with AML or MDS or MDS/MPN; test: Clinical study: safety and tolerability of Compound A in combination with azacitidine; assay type: in vivo, human; settings: treatment of AML or MDS or MDS/MPN, as of 4 Feb. 2023, 97 patients
Experimental: The clinical study was conducted to evaluate the combination of Compound A and azacitidine in patients with myeloid malignancies, including acute myeloid leukemia (AML) (either treatment-naïve [TN] unfit for intensive induction chemotherapy or relapsed/refractory [R/R]), myelodysplastic syndrome (MDS), or MDS/myeloproliferative neoplasm (MPN). Patients with AML who were treatment-naive unfit for intensive chemotherapy or who are relapsed/refractory were enrolled into the AML cohorts; and patients with myelodysplastic syndrome (MDS) or MDS/myeloproliferative neoplasm (MPN) who were treatment-naïve with high-risk disease or who were relapsed/refractory were enrolled into the MDS cohorts.
Part 1 AML (Dose Regimen Finding; N≈18 to 36, i.e., a minimum of 6 and a maximum of 12/cohort) studied the safety and tolerability of different dose regimens of Compound A in combination with a fixed dose of azacitidine at 75 mg/m^2 for 7 days. After 3 patients have completed the dose-limiting toxicities (DLT) window, the SMC reviewed all available data and considered the probability of DLT rate to be >20% and recommended whether or not to enroll additional patients (ie, up to 12). […]
All Part 1, Part 2, and Part 3 cohorts were assessed for DLTs. […]

[3] = R/R patients, in combination with azacitidine
[4] = TN patients, in combination with azacitidine

Question: How did the CR [1, 3] turn out when CC(C)c1ccccc1[C@@H]1CCCN1C1CC2(CCN(c3ccc(C(=O)NS(=O)(=O)c4ccc(NCC5CCC(C)(O)CC5)c([N+](=O)[O-])c4)c(Oc4cnc5[nH]ccc5c4)c3)CC2)C1 (stereo partly drawn) [Compound A, 2-((1H-pyrrolo[2,3-b]pyridin-5-yl)oxy)-N-((4-((((1r,4r)-4-hydroxy-4-methylcyclohexyl)methyl)amino)-3-nitrophenyl)sulfonyl)-4-(2-((S)-2-(2-isopropylphenyl)pyrrolidin-1-yl)-7-azaspiro[3.5]nonan-7-yl)benzamide] was run?
Answer: 50%

Question: And the “CR+CRh” value [1, 3]?
Answer: 67%

Question: And the CR [1, 4]?
Answer: 73%

Question: What about the “CR+CRh” value [1, 4] of the same molecule?
Answer: 73%

Question: What about the CR/CRh ([1]; R/R AML patients, all dose cohorts) of the same molecule?
Answer: 50%

Question: What about the “CR+CRh in TN AML achieved by the end of cycle 1” value ([1]; TN AML patients, responders by end of cycle 1 out of all CR+CRh responders, in combination with azacitidine) of the same molecule?
Answer: 15 of 20

Question: And the CR/CRh ([1]; TN unfit AML patients, all dose cohorts (40, 80, 160 mg x 10 days, 160 mg x 28 days))?
Answer: 65%

Question: And the safety analysis [2]?
Answer: well-tolerated and safe
